Measurements from ChEMBL document CHEMBL1671627, “Increasing trends in antimicrobial resistance among clinically important anaerobes and Bacteroides fragilis isolates causing nosocomial infections: emerging resistance to carbapenems” (2008).
Values after ≈ are worked out from the molar mass of the structure shown.

Columns and labels:
[1] = system: Bacteroides fragilis; assay: Antibacterial activity against Bacteroides fragilis assessed as susceptible isolates by CLSI agar dilution method; assay type: functional
[2] = system: Bacteroides fragilis; assay: Antibacterial activity against Bacteroides fragilis assessed as resistant isolates by CLSI agar dilution method; assay type: functional
[3] = system: Bacteroides thetaiotaomicron; assay: Antibacterial activity against beta-lactamase producing Bacteroides thetaiotaomicron assessed as susceptible isolates by CLSI agar dilution method; assay type: functional
[4] = system: Bacteroides thetaiotaomicron; assay: Antibacterial activity against beta-lactamase producing Bacteroides thetaiotaomicron assessed as resistant isolates by CLSI agar dilution method; assay type: functional
[5] = system: Phocaeicola vulgatus; assay: Antibacterial activity against beta-lactamase producing Bacteroides vulgatus by CLSI agar dilution method; assay type: functional
[6] = system: Phocaeicola vulgatus; assay: Antibacterial activity against beta-lactamase producing Bacteroides vulgatus assessed as susceptible isolates by CLSI agar dilution method; assay type: functional
[7] = system: Phocaeicola vulgatus; assay: Antibacterial activity against beta-lactamase producing Bacteroides vulgatus assessed as resistant isolates by CLSI agar dilution method; assay type: functional
[8] = system: Bacteroides uniformis; assay: Antibacterial activity against beta-lactamase producing Bacteroides uniformis by CLSI agar dilution method; assay type: functional
[9] = system: Bacteroides uniformis; assay: Antibacterial activity against beta-lactamase producing Bacteroides uniformis assessed as susceptible isolates by CLSI agar dilution method; assay type: functional
[10] = system: Bacteroides uniformis; assay: Antibacterial activity against beta-lactamase producing Bacteroides uniformis assessed as resistant isolates by CLSI agar dilution method; assay type: functional
[11] = system: Bacteroides caccae; assay: Antibacterial activity against beta-lactamase producing Bacteroides caccae by CLSI agar dilution method; assay type: functional
[12] = system: Bacteroides caccae; assay: Antibacterial activity against beta-lactamase producing Bacteroides caccae assessed as susceptible isolates by CLSI agar dilution method; assay type: functional
[13] = system: Bacteroides caccae; assay: Antibacterial activity against beta-lactamase producing Bacteroides caccae assessed as resistant isolates by CLSI agar dilution method; assay type: functional
[14] = system: Fusobacterium varium; assay: Antibacterial activity against Fusobacterium varium by CLSI agar dilution method; assay type: functional
[15] = system: Fusobacterium nucleatum; assay: Antibacterial activity against Fusobacterium nucleatum by CLSI agar dilution method; assay type: functional
[16] = system: Fusobacterium mortiferum; assay: Antibacterial activity against Fusobacterium mortiferum by CLSI agar dilution method; assay type: functional
[17] = system: Fusobacterium necrophorum; assay: Antibacterial activity against Fusobacterium necrophorum by CLSI agar dilution method; assay type: functional
[18] = system: Fusobacterium varium; assay: Antibacterial activity against Fusobacterium varium assessed as susceptible isolates by CLSI agar dilution method; assay type: functional
[19] = system: Fusobacterium nucleatum; assay: Antibacterial activity against Fusobacterium nucleatum assessed as susceptible isolates by CLSI agar dilution method; assay type: functional
[20] = system: Fusobacterium mortiferum; assay: Antibacterial activity against Fusobacterium mortiferum assessed as susceptible isolates by CLSI agar dilution method; assay type: functional
[21] = system: Fusobacterium necrophorum; assay: Antibacterial activity against Fusobacterium necrophorum assessed as susceptible isolates by CLSI agar dilution method; assay type: functional
[22] = system: Fusobacterium varium; assay: Antibacterial activity against Fusobacterium varium assessed as resistant isolates by CLSI agar dilution method; assay type: functional
[23] = system: Fusobacterium nucleatum; assay: Antibacterial activity against Fusobacterium nucleatum assessed as resistant isolates by CLSI agar dilution method; assay type: functional
[24] = system: Fusobacterium mortiferum; assay: Antibacterial activity against Fusobacterium mortiferum assessed as resistant isolates by CLSI agar dilution method; assay type: functional
[25] = system: Fusobacterium necrophorum; assay: Antibacterial activity against Fusobacterium necrophorum assessed as resistant isolates by CLSI agar dilution method; assay type: functional
[26] = system: Prevotella buccae; assay: Antibacterial activity against Prevotella buccae by CLSI agar dilution method; assay type: functional; conditions: Segatella buccae
[27] = system: Prevotella bivia; assay: Antibacterial activity against Prevotella bivia by CLSI agar dilution method; assay type: functional
[28] = system: Prevotella intermedia; assay: Antibacterial activity against Prevotella intermedia by CLSI agar dilution method; assay type: functional
[29] = system: Prevotella melaninogenica; assay: Antibacterial activity against Prevotella melaninogenica by CLSI agar dilution method; assay type: functional
[30] = system: Prevotella buccae; assay: Antibacterial activity against Prevotella buccae assessed as susceptible isolates by CLSI agar dilution method; assay type: functional, Segatella buccae
[31] = system: Prevotella bivia; assay: Antibacterial activity against Prevotella bivia assessed as susceptible isolates by CLSI agar dilution method; assay type: functional
[32] = system: Prevotella intermedia; assay: Antibacterial activity against Prevotella intermedia assessed as susceptible isolates by CLSI agar dilution method; assay type: functional
[33] = system: Prevotella melaninogenica; assay: Antibacterial activity against Prevotella melaninogenica assessed as susceptible isolates by CLSI agar dilution method; assay type: functional
[34] = system: Prevotella buccae; assay: Antibacterial activity against Prevotella buccae assessed as resistant isolates by CLSI agar dilution method; assay type: functional, Segatella buccae
[35] = system: Prevotella bivia; assay: Antibacterial activity against Prevotella bivia assessed as resistant isolates by CLSI agar dilution method; assay type: functional
[36] = system: Prevotella intermedia; assay: Antibacterial activity against Prevotella intermedia assessed as resistant isolates by CLSI agar dilution method; assay type: functional
[37] = system: Prevotella melaninogenica; assay: Antibacterial activity against Prevotella melaninogenica assessed as resistant isolates by CLSI agar dilution method; assay type: functional
[38] = system: Veillonella parvula; assay: Antibacterial activity against Veillonella parvula by CLSI agar dilution method; assay type: functional
[39] = system: Clostridium perfringens; assay: microbe, parasite or virus in culture; assay type: functional
[40] = system: Clostridium paraputrificum; assay: Antibacterial activity against beta-lactamase producing Clostridium paraputrificum by CLSI agar dilution method; assay type: functional
[41] = system: Clostridium septicum; assay: Antibacterial activity against beta-lactamase producing Clostridium septicum by CLSI agar dilution method; assay type: functional
[42] = system: Clostridium tertium; assay: Antibacterial activity against beta-lactamase producing Clostridium tertium by CLSI agar dilution method; assay type: functional
[43] = system: Clostridium paraputrificum; assay: Antibacterial activity against beta-lactamase producing Clostridium paraputrificum assessed as susceptible isolates by CLSI agar dilution method; assay type: functional
[44] = system: Clostridium septicum; assay: Antibacterial activity against beta-lactamase producing Clostridium septicum assessed as susceptible isolates by CLSI agar dilution method; assay type: functional
[45] = system: Clostridium tertium; assay: Antibacterial activity against beta-lactamase producing Clostridium tertium assessed as susceptible isolates by CLSI agar dilution method; assay type: functional
[46] = system: Bacteroides fragilis; assay: Antibacterial activity against Bacteroides fragilis by CLSI agar dilution method; assay type: functional
[47] = system: Bacteroides thetaiotaomicron; assay: Antibacterial activity against beta-lactamase producing Bacteroides thetaiotaomicron by CLSI agar dilution method; assay type: functional
[48] = system: Clostridium paraputrificum; assay: Antibacterial activity against beta-lactamase producing Clostridium paraputrificum assessed as resistant isolates by CLSI agar dilution method; assay type: functional
[49] = system: Clostridium septicum; assay: Antibacterial activity against beta-lactamase producing Clostridium septicum assessed as resistant isolates by CLSI agar dilution method; assay type: functional
[50] = system: Clostridium tertium; assay: Antibacterial activity against beta-lactamase producing Clostridium tertium assessed as resistant isolates by CLSI agar dilution method; assay type: functional
[51] = system: Peptostreptococcus anaerobius; assay: Antibacterial activity against beta-lactamase producing Peptostreptococcus anaerobius by CLSI agar dilution method; assay type: functional
[52] = system: Peptostreptococcus anaerobius; assay: Antibacterial activity against beta-lactamase producing Peptostreptococcus anaerobius assessed as susceptible isolates by CLSI agar dilution method; assay type: functional
[53] = system: Peptostreptococcus anaerobius; assay: Antibacterial activity against beta-lactamase producing Peptostreptococcus anaerobius assessed as resistant isolates by CLSI agar dilution method; assay type: functional
[54] = system: Parvimonas micra; assay: Antibacterial activity against beta-lactamase producing Micromonas micros by CLSI agar dilution method; assay type: functional
[55] = system: Parvimonas micra; assay: Antibacterial activity against beta-lactamase producing Micromonas micros assessed as susceptible isolates by CLSI agar dilution method; assay type: functional
[56] = system: Parvimonas micra; assay: Antibacterial activity against beta-lactamase producing Micromonas micros assessed as resistant isolates by CLSI agar dilution method; assay type: functional
[57] = system: Peptoniphilus asaccharolyticus; assay: Antibacterial activity against beta-lactamase producing Peptoniphilus asaccharolyticus by CLSI agar dilution method; assay type: functional
[58] = system: Peptoniphilus asaccharolyticus; assay: Antibacterial activity against beta-lactamase producing Peptoniphilus asaccharolyticus assessed as susceptible isolates by CLSI agar dilution method; assay type: functional
[59] = system: Peptoniphilus asaccharolyticus; assay: Antibacterial activity against beta-lactamase producing Peptoniphilus asaccharolyticus assessed as resistant isolates by CLSI agar dilution method; assay type: functional
[60] = system: Finegoldia magna; assay: Antibacterial activity against beta-lactamase producing Finegoldia magna by CLSI agar dilution method; assay type: functional
[61] = system: Finegoldia magna; assay: Antibacterial activity against beta-lactamase producing Finegoldia magna assessed as susceptible isolates by CLSI agar dilution method; assay type: functional
[62] = system: Finegoldia magna; assay: Antibacterial activity against beta-lactamase producing Finegoldia magna assessed as resistant isolates by CLSI agar dilution method; assay type: functional

C[C@@H](O)[C@H]1C(=O)N2C(C(=O)O)=C(S[C@@H]3CN[C@H](C(=O)Nc4cccc(C(=O)O)c4)C3)[C@H](C)[C@H]12
Activity [1]: 90%
Activity [2]: 5%
Activity [3]: 97%
Activity [4]: 3%
MIC50 [5]: 1 µg/mL (≈ 2.1 µM)
MIC90 [5]: 2 µg/mL (≈ 4.21 µM)
Activity [6]: 92%
Activity [7]: 4%
MIC50 [8]: 1 µg/mL (≈ 2.1 µM)
MIC90 [8]: 2 µg/mL (≈ 4.21 µM)
Activity [9]: 92%
Activity [10]: 4%
MIC50 [11]: 1 µg/mL (≈ 2.1 µM)
MIC90 [11]: 2 µg/mL (≈ 4.21 µM)
Activity [12]: 92%
Activity [13]: 4%
MIC50 [14]: 0.06 µg/mL (≈ 0.126 µM)
MIC90 [14]: 0.12 µg/mL (≈ 0.252 µM)
MIC50 [15]: 0.06 µg/mL (≈ 0.126 µM)
MIC90 [15]: 0.12 µg/mL (≈ 0.252 µM)
MIC50 [16]: 0.06 µg/mL (≈ 0.126 µM)
MIC90 [16]: 0.12 µg/mL (≈ 0.252 µM)
MIC50 [17]: 0.06 µg/mL (≈ 0.126 µM)
MIC90 [17]: 0.12 µg/mL (≈ 0.252 µM)
Activity [18]: 100%
Activity [19]: 100%
Activity [20]: 100%
Activity [21]: 100%
Activity [22]: 0%
Activity [23]: 0%
Activity [24]: 0%
Activity [25]: 0%
MIC50 [26]: 0.12 µg/mL (≈ 0.252 µM)
MIC90 [26]: 0.5 µg/mL (≈ 1.05 µM)
MIC50 [27]: 0.12 µg/mL (≈ 0.252 µM)
MIC90 [27]: 0.5 µg/mL (≈ 1.05 µM)
MIC50 [28]: 0.12 µg/mL (≈ 0.252 µM)
MIC90 [28]: 0.5 µg/mL (≈ 1.05 µM)
MIC50 [29]: 0.12 µg/mL (≈ 0.252 µM)
MIC90 [29]: 0.5 µg/mL (≈ 1.05 µM)
Activity [30]: 100%
Activity [31]: 100%
Activity [32]: 100%
Activity [33]: 100%
Activity [34]: 0%
Activity [35]: 0%
Activity [36]: 0%
Activity [37]: 0%
MIC [38]: 0.03 µg/mL (≈ 0.0631 µM)
MIC50 [39]: 0.12 µg/mL (≈ 0.252 µM)
MIC90 [39]: 4 µg/mL (≈ 8.41 µM)
MIC50 [40]: 0.12 µg/mL (≈ 0.252 µM)
MIC90 [40]: 4 µg/mL (≈ 8.41 µM)
MIC50 [41]: 0.12 µg/mL (≈ 0.252 µM)
MIC90 [41]: 4 µg/mL (≈ 8.41 µM)
MIC50 [42]: 0.12 µg/mL (≈ 0.252 µM)
MIC90 [42]: 4 µg/mL (≈ 8.41 µM)
Activity [43]: 96%
Activity [44]: 96%
Activity [45]: 96%
MIC50 [46]: 0.25 µg/mL (≈ 0.526 µM)
MIC90 [46]: 4 µg/mL (≈ 8.41 µM)
MIC50 [47]: 1 µg/mL (≈ 2.1 µM)
MIC90 [47]: 4 µg/mL (≈ 8.41 µM)
Activity [48]: 0%
Activity [49]: 0%
Activity [50]: 0%
MIC50 [51]: 0.06 µg/mL (≈ 0.126 µM)
MIC90 [51]: 1 µg/mL (≈ 2.1 µM)
Activity [52]: 100%
Activity [53]: 0%
MIC50 [54]: 0.06 µg/mL (≈ 0.126 µM)
MIC90 [54]: 1 µg/mL (≈ 2.1 µM)
Activity [55]: 100%
Activity [56]: 0%
MIC50 [57]: 0.06 µg/mL (≈ 0.126 µM)
MIC90 [57]: 1 µg/mL (≈ 2.1 µM)
Activity [58]: 100%
Activity [59]: 0%
MIC50 [60]: 0.06 µg/mL (≈ 0.126 µM)
MIC90 [60]: 1 µg/mL (≈ 2.1 µM)
Activity [61]: 100%
Activity [62]: 0%
